In patent US20180298405A1, “METHODS AND COMPOSITIONS TO INCREASE HUMAN SOMATIC CELL NUCLEAR TRANSFER (SCNT) EFFICIENCY BY REMOVING HISTONE H3-LYSINE TRIMETHYLATION, AND DERIVATION OF HUMAN NT-ESC” (CHILDREN'S MEDICAL CENTER CORPORATION, priority 2015, published 2018):

System: reprogramming resistant regions (RRRs) / ZGA genes
Assay: RNA-seq of late 8-cell human SCNT embryos with or without KDM4A mRNA injection (ZGA of RRRs, KDM4A-responsive genes)
Format: cell-based
Settings: 8-cell embryos
From the text: A sliding window (size 20 kb, step size 10 kb) was used to assess the genome-wide expression level of 4-cell and 8-cell human embryos. For each window, the expression level was quantified with normalized RPM (reads per millions of uniquely mapped reads). […] These activated regions were classed into three groups based on their expression differences in human SCNT and IVF 8-cell embryos.
The SCNT embryos used for ZGA analysis were generated using oocytes donated by a single healthy person (#64) and dermal fibroblast cells from an AMD patient (DFB-8). SCNT and IVF embryos were cultured up to late 8-cell stage, when the compaction of blastomeres is initiated, then they were treated briefly with acid Tyrode solution to remove zona pellucida. To prepare for the 8-cell SCNT embryo, oocytes from a single oocyte donor, and skin fibroblast cells from a single somatic nuclear donor were used. All the procedures are the same as described in the “Human SCNT procedure and KMD4A mRNA injection” section. Only embryos that reached the late 8-cell stage synchronically 74 hours post activation were collected and used for this experiment.
For preparation of the control IVF embryos, several donated early 8-cell stage IVF embryos were thawed and cultured for 5-7 hours to allow them to reach late 8-cell stage before being processed. After removal of the zona pellucida, the denuded embryos were washed 3 times in PBS, loaded into RNAse and DNAse free PCR tubes, spin downed, and snap frozen in liquid nitrogen. Then, they were kept at −80° C. until use. As controls, dermal fibroblast cells of somatic nuclear donors were also prepared. Those fibroblast cells were cultured in a 25 cm^2 flask in DMEM 10% FBS, and approximately 10,000 cells/donor were collected, snap frozen, and stored at −80° C. until use.
Five 8-cell embryos for each group were directly lysed and used for cDNA synthesis using SMART-Seq v4 Ultra Low Input RNA Kit (Clontech). For MEF donor, 10 ng total RNA was used for cDNA synthesis using SMART-Seq v4 Ultra Low Input RNA Kit. After amplification, the cDNA samples were fragmented using Covaris sonicator M220 to an average size of 150 bp (Covaris). Sequencing libraries were made with the fragmented DNA using NEBNext Ultra DNA Library Prep Kit for Illumina according to manufacturer's instruction (New England Biolabs) with different barcodes. For each RNA-seq analysis of hESCs, 1 μg total RNA was used for mRNA purification. Barcoded RNA-seq libraries were generated using NEBNext Ultra Directional RNA Library Prep Kit for Illumina (New England Biolabs). Single end 50 bp sequencing was performed on a HiSeq 2500 sequencer (Illumina). Sequencing reads were mapped to the human genome (hg19) with Tophat2. All programs were performed with default settings (unless otherwise specified). At least 22 million uniquely mapped reads were obtained for each sequencing library, and subsequently assembled into transcripts guided by the reference annotation (Refseq gene models) with Cufflinks v2.0.2. Expression level of each gene was quantified with normalized FPKM (fragments per kilobase of exon per million mapped fragments). Statistical analyses were performed with R (available at: “www.r-project.org/”). Independent 2 group Wilcoxon rank sum tests were used to compare distributions using the wilcox.test function in R. Pearson's r coefficient was calculated using the cor function with default parameters. The hierarchical clustering analysis of the global gene expression pattern in different samples was carried out using heatmap.2 function (gplots package) in R.

KDM4A mRNA: in vitro transcribed mRNA of full length human KDM4A/JHDM3A cDNA, an H3K9me3 demethylase (SEQ ID NO: 1)
FAM83D Fold Change (log2) [KDM4A SCNT/Control SCNT]: 1.32 log2
FAM133B Fold Change (log2) [KDM4A SCNT/Control SCNT]: 1.1 log2
FAM151A Fold Change (log2) [KDM4A SCNT/Control SCNT]: 1.99 log2
FAM162A Fold Change (log2) [KDM4A SCNT/Control SCNT]: 1.73 log2
FAM200A Fold Change (log2) [KDM4A SCNT/Control SCNT]: 1.17 log2
FASTKD5 Fold Change (log2) [KDM4A SCNT/Control SCNT]: 1.05 log2
FBXL12 Fold Change (log2) [KDM4A SCNT/Control SCNT]: 1.74 log2
FMR1NB Fold Change (log2) [KDM4A SCNT/Control SCNT]: 1.49 log2
FOXN2 Fold Change (log2) [KDM4A SCNT/Control SCNT]: 1.29 log2
GALM Fold Change (log2) [KDM4A SCNT/Control SCNT]: 1.55 log2
GIP Fold Change (log2) [KDM4A SCNT/Control SCNT]: 1.59 log2
GJA1 Fold Change (log2) [KDM4A SCNT/Control SCNT]: 1.36 log2
GOLGB1 Fold Change (log2) [KDM4A SCNT/Control SCNT]: 1.58 log2
GUCA1B Fold Change (log2) [KDM4A SCNT/Control SCNT]: 1.02 log2
GUSBP1 Fold Change (log2) [KDM4A SCNT/Control SCNT]: 1.11 log2
GUSBP4 Fold Change (log2) [KDM4A SCNT/Control SCNT]: 1.12 log2
H3F3A Fold Change (log2) [KDM4A SCNT/Control SCNT]: 1.84 log2
IFI30 Fold Change (log2) [KDM4A SCNT/Control SCNT]: 1.05 log2
IL13RA2 Fold Change (log2) [KDM4A SCNT/Control SCNT]: 1.85 log2
KHDC1 Fold Change (log2) [KDM4A SCNT/Control SCNT]: 1.89 log2
KHDC1L Fold Change (log2) [KDM4A SCNT/Control SCNT]: 1.54 log2
KITLG Fold Change (log2) [KDM4A SCNT/Control SCNT]: 2.36 log2
KLF17 Fold Change (log2) [KDM4A SCNT/Control SCNT]: 1.19 log2
KLK4 Fold Change (log2) [KDM4A SCNT/Control SCNT]: 1.68 log2
KLK11 Fold Change (log2) [KDM4A SCNT/Control SCNT]: 1.76 log2
KPTN Fold Change (log2) [KDM4A SCNT/Control SCNT]: 4.35 log2
LARP6 Fold Change (log2) [KDM4A SCNT/Control SCNT]: 1.35 log2
LEMD3 Fold Change (log2) [KDM4A SCNT/Control SCNT]: 1.11 log2
LIM2 Fold Change (log2) [KDM4A SCNT/Control SCNT]: 1.99 log2
LINC00263 Fold Change (log2) [KDM4A SCNT/Control SCNT]: 1.39 log2
LOC284408 Fold Change (log2) [KDM4A SCNT/Control SCNT]: 2.24 log2
LOC347411 Fold Change (log2) [KDM4A SCNT/Control SCNT]: 1.36 log2
LOC401397 Fold Change (log2) [KDM4A SCNT/Control SCNT]: 1.75 log2
LOC643955 Fold Change (log2) [KDM4A SCNT/Control SCNT]: 1.44 log2
LOC653513 Fold Change (log2) [KDM4A SCNT/Control SCNT]: 2.12 log2
LOC723809 Fold Change (log2) [KDM4A SCNT/Control SCNT]: 1.15 log2
LOC100129515 Fold Change (log2) [KDM4A SCNT/Control SCNT]: 1.03 log2
LOC100289211 Fold Change (log2) [KDM4A SCNT/Control SCNT]: 2.34 log2
LOC100505854 Fold Change (log2) [KDM4A SCNT/Control SCNT]: 1.58 log2
LOC100506305 Fold Change (log2) [KDM4A SCNT/Control SCNT]: 1.2 log2
LOC100506668 Fold Change (log2) [KDM4A SCNT/Control SCNT]: 1.63 log2
LUC7L Fold Change (log2) [KDM4A SCNT/Control SCNT]: 1.28 log2
M1 Fold Change (log2) [KDM4A SCNT/Control SCNT]: 4.71 log2
MAGEA12 Fold Change (log2) [KDM4A SCNT/Control SCNT]: 1.81 log2
MAGEB2 Fold Change (log2) [KDM4A SCNT/Control SCNT]: 3.15 log2
MATR3 Fold Change (log2) [KDM4A SCNT/Control SCNT]: 1.11 log2
MED31 Fold Change (log2) [KDM4A SCNT/Control SCNT]: 1.44 log2
MFSD11 Fold Change (log2) [KDM4A SCNT/Control SCNT]: 1.4 log2
MPV17L2 Fold Change (log2) [KDM4A SCNT/Control SCNT]: 1.54 log2
MRPL28 Fold Change (log2) [KDM4A SCNT/Control SCNT]: 1.59 log2
MTERF Fold Change (log2) [KDM4A SCNT/Control SCNT]: 2.39 log2
NANOGNB Fold Change (log2) [KDM4A SCNT/Control SCNT]: 1.79 log2
